Patent US20130225523A1, “GLYCODENDRIMERS OF POLYPROPYLETHERIMINE” (priority 2010, published 2013)

System: pro-inflammatory cytokines such as IL-6, IL-1 beta, TNF-alpha and MIP-1 beta
Assay: Effect of unconjugated components on pro-inflammatory cytokines
Type: cell-based
Settings: even at high doses

## N[C@H]1C(O)O[C@H](CO)[C@@H](O)[C@@H]1O (stereo partly shown) [glucosamine]
  effect on pro-inflammatory cytokines such as IL-6, IL-1 beta, TNF-alpha and MIP-1 beta: no effect
